These results are taken from article PMC8213057, “Targeting ALK2: An Open Science Approach to Developing Therapeutics for the Treatment of Diffuse Intrinsic Pontine Glioma” (Journal of Medicinal Chemistry, 2020).

For one experiment, the target named is PIM3 (Homo sapiens, UniProt Q86V86). Particulars: 1 μM; Run 1, Run 2.
Another experiment deals with T1, RIPK4 (Homo sapiens, UniProt P57078).
T1 sequence (P57078 1-832): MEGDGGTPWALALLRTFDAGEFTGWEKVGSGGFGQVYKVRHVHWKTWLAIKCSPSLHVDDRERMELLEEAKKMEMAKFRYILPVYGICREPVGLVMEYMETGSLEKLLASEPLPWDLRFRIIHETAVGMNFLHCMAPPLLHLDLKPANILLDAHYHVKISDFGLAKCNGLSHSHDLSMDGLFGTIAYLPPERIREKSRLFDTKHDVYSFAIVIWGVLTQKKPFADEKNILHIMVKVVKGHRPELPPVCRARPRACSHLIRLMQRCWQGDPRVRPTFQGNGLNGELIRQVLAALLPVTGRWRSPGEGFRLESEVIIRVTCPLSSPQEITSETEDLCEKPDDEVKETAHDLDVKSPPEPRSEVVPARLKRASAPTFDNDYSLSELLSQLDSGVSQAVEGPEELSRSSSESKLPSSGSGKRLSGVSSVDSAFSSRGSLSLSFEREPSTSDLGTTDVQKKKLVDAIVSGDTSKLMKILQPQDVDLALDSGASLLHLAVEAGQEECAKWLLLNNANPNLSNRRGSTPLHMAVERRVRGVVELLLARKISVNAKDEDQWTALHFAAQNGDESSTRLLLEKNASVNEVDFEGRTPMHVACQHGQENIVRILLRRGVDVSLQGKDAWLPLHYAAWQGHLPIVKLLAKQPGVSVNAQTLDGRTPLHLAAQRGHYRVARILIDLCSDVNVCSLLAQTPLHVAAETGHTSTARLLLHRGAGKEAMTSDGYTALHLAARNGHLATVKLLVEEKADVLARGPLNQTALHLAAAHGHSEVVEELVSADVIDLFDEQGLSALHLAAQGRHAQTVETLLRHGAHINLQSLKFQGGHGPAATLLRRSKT
The conditions noted are these: 1 μM; Run 1, Run 2.

In the next experiment the target is NIM1 (Homo sapiens, UniProt Q8IY84). Put plainly: biochemical. Particulars: read-out: % enzyme activity, 1 μM; Run 1, Run 2.
Chain of NIM1 (Q8IY84 whole entry): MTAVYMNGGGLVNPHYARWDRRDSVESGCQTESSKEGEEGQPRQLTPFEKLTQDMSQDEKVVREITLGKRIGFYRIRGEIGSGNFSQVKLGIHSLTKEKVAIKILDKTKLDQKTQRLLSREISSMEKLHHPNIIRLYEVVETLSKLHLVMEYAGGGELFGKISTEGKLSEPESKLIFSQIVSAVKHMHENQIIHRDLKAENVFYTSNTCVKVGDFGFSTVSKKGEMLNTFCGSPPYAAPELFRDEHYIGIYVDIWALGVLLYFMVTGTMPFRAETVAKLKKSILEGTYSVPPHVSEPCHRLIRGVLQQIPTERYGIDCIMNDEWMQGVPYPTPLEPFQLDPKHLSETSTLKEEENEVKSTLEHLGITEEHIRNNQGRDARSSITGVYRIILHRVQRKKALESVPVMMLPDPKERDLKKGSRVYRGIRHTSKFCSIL
A further experiment deals with T2, PKG2/PRKG2 (Homo sapiens, UniProt Q13237).
T2 sequence (Q13237 1-762): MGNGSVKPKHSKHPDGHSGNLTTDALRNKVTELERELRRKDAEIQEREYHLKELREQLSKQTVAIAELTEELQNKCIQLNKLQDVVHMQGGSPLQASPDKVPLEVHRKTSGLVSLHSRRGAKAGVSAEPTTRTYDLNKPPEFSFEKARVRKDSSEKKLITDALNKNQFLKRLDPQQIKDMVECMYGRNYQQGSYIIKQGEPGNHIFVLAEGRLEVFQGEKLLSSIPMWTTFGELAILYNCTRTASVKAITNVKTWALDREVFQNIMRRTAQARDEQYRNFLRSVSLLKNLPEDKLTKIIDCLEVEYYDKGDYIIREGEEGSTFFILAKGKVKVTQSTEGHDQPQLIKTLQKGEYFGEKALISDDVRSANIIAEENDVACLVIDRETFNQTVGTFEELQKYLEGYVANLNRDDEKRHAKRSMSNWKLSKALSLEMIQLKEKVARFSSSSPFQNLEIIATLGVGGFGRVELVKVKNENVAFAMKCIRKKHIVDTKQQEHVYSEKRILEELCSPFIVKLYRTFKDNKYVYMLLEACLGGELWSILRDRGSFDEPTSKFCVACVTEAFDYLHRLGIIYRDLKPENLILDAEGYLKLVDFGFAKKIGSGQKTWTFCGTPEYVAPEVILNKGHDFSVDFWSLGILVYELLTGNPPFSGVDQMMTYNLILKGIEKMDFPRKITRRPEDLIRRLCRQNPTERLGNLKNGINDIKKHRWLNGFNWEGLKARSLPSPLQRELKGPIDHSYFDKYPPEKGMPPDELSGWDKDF
Put plainly: biochemical. Particulars: read-out: % enzyme activity, 1 μM; Run 1, Run 2.

The next experiment concerns the target T3, TXK (Homo sapiens, UniProt P42681).
T3 sequence (P42681 1-527): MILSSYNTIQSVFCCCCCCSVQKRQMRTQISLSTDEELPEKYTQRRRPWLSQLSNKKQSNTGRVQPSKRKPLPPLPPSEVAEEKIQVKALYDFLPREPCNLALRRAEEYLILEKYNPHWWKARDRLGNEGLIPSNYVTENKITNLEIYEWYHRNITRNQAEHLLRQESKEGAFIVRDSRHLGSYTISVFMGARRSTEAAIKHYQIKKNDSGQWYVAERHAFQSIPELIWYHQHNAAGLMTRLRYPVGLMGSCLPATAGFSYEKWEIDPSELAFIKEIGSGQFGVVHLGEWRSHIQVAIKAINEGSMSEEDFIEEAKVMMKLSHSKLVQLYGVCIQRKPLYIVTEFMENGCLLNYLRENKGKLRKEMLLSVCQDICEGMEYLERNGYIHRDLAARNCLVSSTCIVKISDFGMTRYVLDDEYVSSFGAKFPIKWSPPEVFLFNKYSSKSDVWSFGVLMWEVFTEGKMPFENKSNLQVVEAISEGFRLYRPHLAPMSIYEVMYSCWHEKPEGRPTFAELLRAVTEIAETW
Put plainly: biochemical. Particulars: read-out: % enzyme activity, 1 μM; Run 1, Run 2.

In the next experiment the target is T4, TAK1 (Homo sapiens, UniProt O43318).
T4 sequence (O43318 1-303 limits assumed): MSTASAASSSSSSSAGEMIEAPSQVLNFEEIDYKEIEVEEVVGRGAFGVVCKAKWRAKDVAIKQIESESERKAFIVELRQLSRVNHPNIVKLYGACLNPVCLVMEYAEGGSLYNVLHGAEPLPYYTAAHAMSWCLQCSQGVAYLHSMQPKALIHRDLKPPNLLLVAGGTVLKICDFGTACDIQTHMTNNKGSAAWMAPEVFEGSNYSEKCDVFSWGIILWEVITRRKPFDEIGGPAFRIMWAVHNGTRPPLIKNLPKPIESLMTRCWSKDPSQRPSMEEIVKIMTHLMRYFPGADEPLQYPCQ
Particulars: 1 μM; Run 1, Run 2.

The target in the next experiment is HIPK2 (Homo sapiens, UniProt Q9H2X6). The experiment is described as follows: biochemical. The conditions noted are these: read-out: % enzyme activity, 1 μM; Run 1, Run 2.
Chain of HIPK2 (Q9H2X6 whole entry): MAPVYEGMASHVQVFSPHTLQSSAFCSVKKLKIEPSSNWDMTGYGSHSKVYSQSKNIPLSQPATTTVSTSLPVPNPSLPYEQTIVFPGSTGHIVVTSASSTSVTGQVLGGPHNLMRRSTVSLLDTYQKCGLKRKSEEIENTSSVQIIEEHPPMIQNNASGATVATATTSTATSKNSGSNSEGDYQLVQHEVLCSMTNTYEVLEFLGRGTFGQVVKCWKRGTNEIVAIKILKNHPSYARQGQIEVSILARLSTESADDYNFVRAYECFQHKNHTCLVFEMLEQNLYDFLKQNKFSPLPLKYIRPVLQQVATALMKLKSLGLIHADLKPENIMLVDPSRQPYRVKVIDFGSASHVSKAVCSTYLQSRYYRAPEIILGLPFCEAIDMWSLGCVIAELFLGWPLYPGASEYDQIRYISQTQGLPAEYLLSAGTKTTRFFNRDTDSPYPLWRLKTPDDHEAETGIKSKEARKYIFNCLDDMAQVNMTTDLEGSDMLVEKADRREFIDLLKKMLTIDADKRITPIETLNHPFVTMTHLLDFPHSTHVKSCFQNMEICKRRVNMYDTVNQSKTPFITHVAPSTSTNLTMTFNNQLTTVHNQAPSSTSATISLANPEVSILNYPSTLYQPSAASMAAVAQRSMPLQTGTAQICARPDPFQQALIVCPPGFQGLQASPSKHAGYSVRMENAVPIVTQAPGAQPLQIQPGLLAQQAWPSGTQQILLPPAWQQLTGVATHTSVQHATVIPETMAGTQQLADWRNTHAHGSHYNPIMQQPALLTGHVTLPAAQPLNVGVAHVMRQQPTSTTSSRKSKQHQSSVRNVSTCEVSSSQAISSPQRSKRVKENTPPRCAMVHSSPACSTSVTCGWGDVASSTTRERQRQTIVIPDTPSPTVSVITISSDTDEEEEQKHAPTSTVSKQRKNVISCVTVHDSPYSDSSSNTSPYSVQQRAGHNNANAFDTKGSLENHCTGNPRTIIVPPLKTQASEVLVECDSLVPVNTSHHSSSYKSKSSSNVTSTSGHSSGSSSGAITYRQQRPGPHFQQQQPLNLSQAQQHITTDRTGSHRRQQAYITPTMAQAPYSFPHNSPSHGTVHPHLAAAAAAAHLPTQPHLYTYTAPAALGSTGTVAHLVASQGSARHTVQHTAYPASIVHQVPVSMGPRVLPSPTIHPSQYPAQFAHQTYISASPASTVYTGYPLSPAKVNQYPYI

The structures appear in SMILES notation. A value given as a limit tells only on which side of the number the result lay.

As to `COc1cc(-c2cncc(-c3ccc(N4CCN(C)CC4)cc3)c2C)cc(F)c1C(N)=O` [Compound 26a, 2-Fluoro-6-methoxy-4-(4-methyl-5-(4-(4-methylpiperazin-1-yl)phenyl)pyridin-3-yl)benzamide], the “% enzyme activity” value on PIM3 worked out at 99.10%; at RIPK4 it was 70.28%; at TAK1, 97.44%. At CYP2C19, the CYP inhibition was greater than 50 µM. Moreover, the remaining activity at 1 µM at NIM1 amounted to 96.6%; on PKG2/PRKG2, 98.9%; on TXK it was 101%; at HIPK2, 99.8%. The molecule further had an IC50 in the experiment with hERG greater than 30 µM. In the experiment on hERG, this molecule displayed a hERG inhibition greater than 30 µM.
For `COc1cc(-c2cncc(-c3ccc(N4C[C@@H](C)N(C)[C@@H](C)C4)cc3)c2C)cc(F)c1C(N)=O` [Compound 26c, 2-Fluoro-6-methoxy-4-(4-methyl-5-(4-((3R,5S)-3,4,5-trimethylpiperazin-1-yl)phenyl)pyridin-3-yl)benzamide], the “% enzyme activity” value on PIM3 is 106.19%; on RIPK4 it was 82.04%; on TAK1, 98.46%. The CYP inhibition at CYP2C19 is greater than 50 µM. Further, the remaining activity at 1 µM amounted to 98.2% at NIM1, 98.5% at PKG2/PRKG2, 98.2% at TXK and 103% on HIPK2. In the experiment with hERG, this molecule came in with a hERG inhibition of 18.8 µM.

As a reminder, the IC50 is the midpoint of a concentration-inhibition curve.
